Experimental data as given in patent US20060276340A1, “HERBICIDE COMPOSITION COMPRISING PYRIBAMBENZ-PROPYL OR PYRIBAMBENZ-ISOPROPYL” (Zhejiang Chem-Tech Group Co., Ltd., priority 2003, published 2006).
“Also recorded” adds a separate entry of the source.

Columns and labels:
Type in all cases: in vivo
rape = experiment: safety to crops
Protocol: The herbicidal activities of the compositions were evaluated by plant symptoms such as stunting, deformity, chlorosis, and whitening. 0 represents that the compositions have no herbicidal effect or have safety to crops. 100 represents that the weeds or crops were completely killed. [table]

Alopecurus aequalis [1] = experiment: greenhouse pot test, pre-emergence treatment; conditions: ALOAE
Protocol: (§1) The test soil is a formulated sandy loam soil. 9.5 centimeter diameter pots are used for herbicidal activity test.
(§2) The soil in the pot for the pre-emergence test was sprayed one day after planting. The preparation liquid for the treatment prepared by mixing individual single-herbicides was diluted with water to the desired dosage.
(§3) The treated pots stood for one day, then were placed in a greenhouse and watered regularly. The herbicidal activities of the compositions were evaluated by visual examination after incubating for 14 to 21 days.
(§4) The herbicidal activities of the compositions were evaluated by plant symptoms such as stunting, deformity, chlorosis, and whitening. 0 represents that the compositions have no herbicidal effect or have safety to crops. 100 represents that the weeds or crops were completely killed.

Galium aparine [2] = experiment: greenhouse pot test, pre-emergence treatment; conditions: GALAP
Protocol: as §1, §2, §3, §4

Cerastium arvense [3] = experiment: greenhouse pot test, pre-emergence treatment; conditions: CERAR
Protocol: as §1, §2, §3, §4

Polypogon fugax [4] = experiment: greenhouse pot test, pre-emergence treatment; conditions: POLFU
Protocol: as §1, §2, §3, §4

Poa annua [5] = experiment: greenhouse pot test, Tables 1-2; conditions: POAAN 3 leaves
Protocol: as §1, §2
(§5) The pots for post-emergence treatment are placed into a greenhouse and incubated for 7 to 9 days, and then subjected to leave treatment by spraying. The preparation liquid for the treatment prepared by mixing individual single-herbicides was diluted with water to the desired dosage.
as §3, §4

Beckmannia syzigachne [6] = experiment: greenhouse pot test, Tables 1-2; conditions: BECSY 2 leaves
Protocol: as §1, §2, §5, §3, §4

Alopecurus aequalis [7] = experiment: greenhouse pot test, Tables 1-2
Protocol: as §1, §2, §5, §3, §4

Polypogon fugax [8] = experiment: greenhouse pot test, Tables 1-2; conditions: POLFU 3-4 leaves
Protocol: as §1, §2, §5, §3, §4

Digitrria sanguinalis = experiment: greenhouse pot test, Tables 1-2; conditions: DIGSA 3 leaves
Protocol: as §1, §2, §5, §3, §4

weeds in rape field = experiment: weed control in rape field, descriptive statements
Poa annua [9] = experiment: greenhouse pot test, post-emergence treatment; conditions: POAAN
Protocol: as §1, §5, §3, §4

Alopercurus japonicus [10] = experiment: greenhouse pot test, post-emergence treatment; conditions: ALOJA
Protocol: as §1, §5, §3, §4

Veronica didyma = experiment: greenhouse pot test, post-emergence treatment; conditions: VERDI
Protocol: as §1, §5, §3, §4

Galium aparine [11] = experiment: greenhouse pot test, post-emergence treatment
Protocol: as §1, §5, §3, §4

Poa annua [12] = experiment: greenhouse pot test, post-emergence early stage treatment
Protocol: as §1, §5, §3, §4

Beckmannia syzigachne [13] = experiment: as above; conditions: BECSY 2˜3 leaves
Protocol: as §1, §5, §3, §4

Alopercurus japonicus [14] = experiment: as above; conditions: ALOJA
Protocol: as §1, §5, §3, §4

Galium aparine [15] = experiment: as above
Protocol: as §1, §5, §3, §4

Cerastium arvense [16] = experiment: as above
Protocol: as §1, §5, §3, §4

Alopecurus aequalis [17] = experiment: greenhouse pot test, post-emergence treatment; conditions: ALOAE 3 leaves
Protocol: as §1, §5, §3, §4

Cerastium arvense [18] = experiment: greenhouse pot test, post-emergence treatment; conditions: CERAR 6 leaves
Protocol: as §1, §5, §3, §4

Polypogon fugax [19] = experiment: greenhouse pot test, post-emergence treatment; conditions: POLFU 4˜4.5 leaves
Protocol: as §1, §5, §3, §4

In the case of `CCCOC(=O)c1ccc(NCc2ccccc2Oc2nc(OC)cc(OC)n2)cc1` [Pyribambenz-propyl, propyl 4-({2-[(4,6-dimethoxypyrimidin-2-yl)oxy]benzyl}amino)benzoate], the “selectivity between rape and weeds” value (rape; in vivo) is reported as “good selectivity”, the safety to crops (rape; rape / objective crops) is reported as “safety toward rape” and the “visual evaluation of weed effects” value (Alopecurus aequalis [1]; 30 g/ha) is reported as 95%. The “visual evaluation of weed effects” value (Alopecurus aequalis [1]; 45 g/ha) was 95%, the “visual evaluation of weed effects” value (Galium aparine [2]; 30 g/ha) was 0% and the “visual evaluation of weed effects” value (Galium aparine [2]; 45 g/ha) was 40%. For the same compound, the “visual evaluation of weed effects” value (Cerastium arvense [3]; 30 g/ha) was 70%, the “visual evaluation of weed effects” value (Cerastium arvense [3]; 45 g/ha) was 80% and the “visual evaluation of weed effects” value (Polypogon fugax [4]; 30 g/ha) was 60%. The “visual evaluation of weed effects” value (Polypogon fugax [4]; 45 g/ha) was 80%, the “visual evaluation of weed effects” value (Poa annua [5]; 30 g/ha) was 20% and the “visual evaluation of weed effects” value (Poa annua [5]; 45 g/ha) was 30%. For the same compound, the “visual evaluation of weed effects” value (Beckmannia syzigachne [6]; 30 g/ha) was 0%, the “visual evaluation of weed effects” value (Beckmannia syzigachne [6]; 45 g/ha) was 0% and the “visual evaluation of weed effects” value (Alopecurus aequalis [7]; ALOAE 0 leaf, 30 g/ha) was 90%. The “visual evaluation of weed effects” value (Alopecurus aequalis [7]; ALOAE 0 leaf, 45 g/ha) was 90%, the “visual evaluation of weed effects” value (Alopecurus aequalis [7]; ALOAE 3 leaves, 30 g/ha) was 100% and the “visual evaluation of weed effects” value (Alopecurus aequalis [7]; ALOAE 3 leaves, 45 g/ha) was 100%. For the same compound, the “visual evaluation of weed effects” value (Polypogon fugax [8]; 30 g/ha) was 70%, the “visual evaluation of weed effects” value (Polypogon fugax [8]; 45 g/ha) was 80% and the “visual evaluation of weed effects” value (Digitrria sanguinalis; 30 g/ha) was 60%. For the same compound, the “visual evaluation of weed effects” value (Digitrria sanguinalis; 45 g/ha) was 80%, the weed control (weeds in rape field; Alopecurus aequalis, Alopecurus japonicus, Stellaria aquatica, Stallaria media and Atellaria alsine) was “high-effectively control; also recorded: effective weed control” and the effectiveness of control (weeds in rape field; second important weeds in rape field: Poa annua, sclerochloa kengiana, Beckmannia syzigachne, Polypogon fugax, broadleaf Cardlamine hirsuta, Galium aparine, Lapsana apogonoides, Hemistepta lyrata) was “moderate”. For the same compound, the “visual evaluation of weed effects” value (Poa annua [9]; 30 g/ha) was 85%, the “visual evaluation of weed effects” value (Poa annua [9]; 45 g/ha) was 90% and the “visual evaluation of weed effects” value (Alopercurus japonicus [10]; 30 g/ha) was 85%. For the same compound, the “visual evaluation of weed effects” value (Alopercurus japonicus [10]; 45 g/ha) was 90%, the “visual evaluation of weed effects” value (Veronica didyma; 30 g/ha) was 20% and the “visual evaluation of weed effects” value (Veronica didyma; 45 g/ha) was 30%. The “visual evaluation of weed effects” value (Galium aparine [11]; GALAP, 30 g/ha) was 20%, the “visual evaluation of weed effects” value (Galium aparine [11]; GALAP, 45 g/ha) was 20% and the “visual evaluation of weed effects” value (Poa annua [12]; POAAN 2˜3 leaves, 30 g/ha) was 85%. For the same compound, the “visual evaluation of weed effects” value (Poa annua [12]; POAAN 2˜3 leaves, 45 g/ha) was 95%, the “visual evaluation of weed effects” value (Poa annua [12]; POAAN, 30 g/ha) was 95% and the “visual evaluation of weed effects” value (Poa annua [12]; POAAN, 45 g/ha) was 98%. For the same compound, the “visual evaluation of weed effects” value (Beckmannia syzigachne [13]; 30 g/ha) was 50%, the “visual evaluation of weed effects” value (Beckmannia syzigachne [13]; 45 g/ha) was 70% and the “visual evaluation of weed effects” value (Alopercurus japonicus [14]; 30 g/ha) was 90%. For the same compound, the “visual evaluation of weed effects” value (Alopercurus japonicus [14]; 45 g/ha) was 90%, the “visual evaluation of weed effects” value (Galium aparine [15]; GALAP 7˜8 leaves, 30 g/ha) was 0% and the “visual evaluation of weed effects” value (Galium aparine [15]; GALAP 7˜8 leaves, 45 g/ha) was 30%. For the same compound, the “visual evaluation of weed effects” value (Galium aparine [15]; GALAP, 30 g/ha) was 20%, the “visual evaluation of weed effects” value (Galium aparine [15]; GALAP, 45 g/ha) was 20% and the “visual evaluation of weed effects” value (Cerastium arvense [16]; CERAR 3˜4 leaves, 30 g/ha) was 40%. For the same compound, the “visual evaluation of weed effects” value (Cerastium arvense [16]; CERAR 3˜4 leaves, 45 g/ha) was 50%, the “visual evaluation of weed effects” value (Cerastium arvense [16]; CERAR, 30 g/ha) was 80% and the “visual evaluation of weed effects” value (Cerastium arvense [16]; CERAR, 45 g/ha) was 85%.

`CCOc1nc(NC)nc(NC(=O)NS(=O)(=O)c2ccccc2C(=O)O)n1` [ethametsulfuron] was tested, and the “visual evaluation of weed effects” value (Alopecurus aequalis [1]; 6 g/ha) was 80%, the “visual evaluation of weed effects” value (Alopecurus aequalis [1]; 7.5 g/ha) was 90% and the “visual evaluation of weed effects” value (Alopecurus aequalis [1]; 9 g/ha) was 95%. For the same compound, the “visual evaluation of weed effects” value (Galium aparine [2]; 6 g/ha) was 10%, the “visual evaluation of weed effects” value (Galium aparine [2]; 7.5 g/ha) was 40% and the “visual evaluation of weed effects” value (Galium aparine [2]; 9 g/ha) was 70%. The “visual evaluation of weed effects” value (Cerastium arvense [3]; 6 g/ha) was 85%, the “visual evaluation of weed effects” value (Cerastium arvense [3]; 7.5 g/ha) was 90% and the “visual evaluation of weed effects” value (Cerastium arvense [3]; 9 g/ha) was 95%. For the same compound, the “visual evaluation of weed effects” value (Polypogon fugax [4]; 6 g/ha) was 60%, the “visual evaluation of weed effects” value (Polypogon fugax [4]; 7.5 g/ha) was 70% and the “visual evaluation of weed effects” value (Polypogon fugax [4]; 9 g/ha) was 75%. The weed control (weeds in rape field; grass weeds) was “rather moderate control”, the weed control (weeds in rape field; most of broadleaf weeds) was “remarkable control” and the “visual evaluation of weed effects” value (Alopecurus aequalis [17]; 6 g/ha) was 90%. For the same compound, the “visual evaluation of weed effects” value (Alopecurus aequalis [17]; 7.5 g/ha) was 90%, the “visual evaluation of weed effects” value (Alopecurus aequalis [17]; 9 g/ha) was 90% and the “visual evaluation of weed effects” value (Galium aparine [11]; GALAP 7˜8 leaves, 6 g/ha) was 85%. The “visual evaluation of weed effects” value (Galium aparine [11]; GALAP 7˜8 leaves, 7.5 g/ha) was 90%, the “visual evaluation of weed effects” value (Galium aparine [11]; GALAP 7˜8 leaves, 9 g/ha) was 90% and the “visual evaluation of weed effects” value (Cerastium arvense [18]; 6 g/ha) was 90%. The “visual evaluation of weed effects” value (Cerastium arvense [18]; 7.5 g/ha) was 90%, the “visual evaluation of weed effects” value (Cerastium arvense [18]; 9 g/ha) was 90% and the “visual evaluation of weed effects” value (Polypogon fugax [19]; 6 g/ha) was 60%. For the same compound, the “visual evaluation of weed effects” value (Polypogon fugax [19]; 7.5 g/ha) was 60%, the “visual evaluation of weed effects” value (Polypogon fugax [19]; 9 g/ha) was 70% and the “visual evaluation of weed effects” value (Poa annua [12]; POAAN 2˜3 leaves, ethametsulfuron 6 g/ha) was 70%. The “visual evaluation of weed effects” value (Poa annua [12]; POAAN 2˜3 leaves, ethametsulfuron 9 g/ha) was 80%, the “visual evaluation of weed effects” value (Beckmannia syzigachne [13]; ethametsulfuron 6 g/ha) was 40% and the “visual evaluation of weed effects” value (Beckmannia syzigachne [13]; ethametsulfuron 9 g/ha) was 40%. For the same compound, the “visual evaluation of weed effects” value (Galium aparine [15]; GALAP 7˜8 leaves, ethametsulfuron 6 g/ha) was 90%, the “visual evaluation of weed effects” value (Galium aparine [15]; GALAP 7˜8 leaves, ethametsulfuron 9 g/ha) was 90% and the “visual evaluation of weed effects” value (Cerastium arvense [16]; CERAR 3˜4 leaves, ethametsulfuron 6 g/ha) was 90%. The “visual evaluation of weed effects” value (Cerastium arvense [16]; CERAR 3˜4 leaves, ethametsulfuron 9 g/ha) was 90%.
